US20080153853A1, “USE OF MTKI 1 FOR TREATING OR PREVENTING BRAIN CANCER” (priority 2006, published 2008)

What was measured:
[1] = test system: A431 vulval carcinoma cells (intracranial tumor); test: Stereotaxic injection of A431 cells in the brain of rats: animal survival; assay type: in vivo, rat; details: rats with intracranial and s.c. A431 tumors, vehicle 49
From the text: A431 (ATCC, Rockville, Md. USA) vulval carcinoma cells were stereo-tactically injected into athymic nude rats and mice. Tumor growth delay was followed by using animal survival as readout in the rat study or using MRI imaging in the case of the mouse study.
Stereotaxic Injection of Cells in the Brain of Rats
Forty (40) rats (Wistar, BDIX or Sprague Dawley) in part I and 40 nude rats were sterotaxically injected with cells at D0. For stereotaxic injection of tumor cells, rats were anesthetised by an intramuscular injection of a Ketamine (Ketamine500®, Ref 043KET204, Centravet, France) and Xylazine (Rompun®, Ref 002ROM001, Centravet, France) mixture (2/1, v/v, 70 and 15 mg/kg, respectively). 1×10^5 A431 Cells were stereotaxically injected using 4 independant stereotaxic apparatus (Kopf Instrument, Germany and Stoelting Company, USA) in the right frontal lobe with 1×10^5 tumor cells re-suspended in 5 μl of RPMI medium. Five μl of the cell suspension was injected according to SOP No TEC-083/001 at 0.5 μl/min. After cells injection, rats were observed during 1 hour.
(§1) MTKI 1 (Compound 1 in the figures hereinafter) was dissolved in a solution of 20% Hydroxypropyl-β-cyclodextrine (20% β-HP-Cyclodextrin, pH 4.0) and given by oral gavage, daily for a period of fourteen days starting four days post inoculation of the cells, i.e. from day 4-17. Vehicle treated animals only received the β-HP-Cyclodextrin solution.
(§2) The reference compound BCNU (Carmustin) was dosed intravenously on day 4 and day 18.

[2] = test system: A431 vulval carcinoma cells (s.c. tumor); test: Subcutaneous injection of A431 cells in rats: s.c. tumor growth; assay type: in vivo, rat; details: for Treatment versus Control (taking control as 100%), median s.c. A431 tumor volume: day 18, 24 hr after last treatment; for Effect on subcutaneous A431 tumor growth (median s.c. tumor volumes, FIG. 1): MTKI 1 p.o. at all doses tested (50, 75, 100 mpk), BCNU i.v. day 4 and day 18
Method: A431 (ATCC, Rockville, Md. USA) vulval carcinoma cells were stereo-tactically injected into athymic nude rats and mice. Tumor growth delay was followed by using animal survival as readout in the rat study or using MRI imaging in the case of the mouse study. Subcutaneous Injection of Cells in Rats The same day of the stereotaxic injection, rats were injected subcutaneously with A431 cells at D0. The tumor was obtained in rats by subcutaneous (SC) injection of 1×10^7 A431 cells in RPMI medium (200 μl) in their right flank. For subcutaneous injection of tumor cells, rats were anesthetised by inhalation of Isoflurane Forene (Minerve, Bondoufle, France). MTKI 1 (Compound 1 in the figures hereinafter) was dissolved in a solution of 20% Hydroxypropyl-β-cyclodextrine (20% β-HP-Cyclodextrin, pH 4.0) and given by oral gavage, daily for a period of fourteen days starting four days post inoculation of the cells, i.e. from day 4-17. Vehicle treated animals only received the β-HP-Cyclodextrin solution. The reference compound BCNU (Carmustin) was dosed intravenously on day 4 and day 18.

[3] = Clinical signs of toxicity (body weight loss, behavioral changes) in treated tumor-bearing rats; details: high dose 15 mpk i.v. day 4 and day 18
Method: as §1, §2

SMILES	Survival times (50%) ([1]; 50 mpk p.o. daily day 4-17) [days]	Survival times (50%) ([1]; 75 mpk p.o. daily day 4-17) [days]	Survival times (50%) ([1]; 100 mpk p.o. daily day 4-17) [days]	Treatment versus Control (taking control as 100%), median s.c. A431 tumor volume ([2]; 50 mpk p.o. QDx14 (day 4-17)) [%]	Treatment versus Control (taking control as 100%), median s.c. A431 tumor volume ([2]; 75 mpk p.o. QDx14 (day 4-17)) [%]	Treatment versus Control (taking control as 100%), median s.c. A431 tumor volume ([2]; 100 mpk p.o. QDx14 (day 4-17)) [%]	Effect on subcutaneous A431 tumor growth (median s.c. tumor volumes, FIG. 1) [2]	Clinical signs of toxicity, i.e. body weight loss [3]
COc1cc2ncnc3c2cc1OCCCCCN(C)Cc1ccc(Br)cc1N3 [MTKI 1, 4,6-ethanediylidenepyrimido[4,5-b][6,1,12]benzoxadiazacyclo-pentadecine, 17-bromo-8,9,10,11,12,13,14,19-octahydro-20-methoxy-13-methyl]	61	83	88	5.37	4.29	3.17	clearly inhibited	–
O=NN(CCCl)C(=O)NCCCl [BCNU, reference compound]	–	–	–	–	–	–	no effect	may have induced some mild toxicity
